Reference: patent US8030478B2, “Method for nucleic acid replication and novel artificial base pairs” (priority 2005, dated 2011)
Where two headings read alike, the source gives them in different places. Marks after values point to notes of the source that are not given here.

Columns and labels:
[1] = target: T1, Klenow fragment lacking exonuclease activity (KF exo−) (Escherichia coli, UniProt P00582, D355A/E357A); assay type: biochemical, E. coli; settings: for Efficiency (Vmax/KM) / Km / Vmax: 37° C.
T1 construct: enzyme solution of the Klenow fragment lacking exonuclease activity (KF exo^−, Amersham USB); purchased Amersham USB
T1 sequence (P00582 324-928 D355A/E357A): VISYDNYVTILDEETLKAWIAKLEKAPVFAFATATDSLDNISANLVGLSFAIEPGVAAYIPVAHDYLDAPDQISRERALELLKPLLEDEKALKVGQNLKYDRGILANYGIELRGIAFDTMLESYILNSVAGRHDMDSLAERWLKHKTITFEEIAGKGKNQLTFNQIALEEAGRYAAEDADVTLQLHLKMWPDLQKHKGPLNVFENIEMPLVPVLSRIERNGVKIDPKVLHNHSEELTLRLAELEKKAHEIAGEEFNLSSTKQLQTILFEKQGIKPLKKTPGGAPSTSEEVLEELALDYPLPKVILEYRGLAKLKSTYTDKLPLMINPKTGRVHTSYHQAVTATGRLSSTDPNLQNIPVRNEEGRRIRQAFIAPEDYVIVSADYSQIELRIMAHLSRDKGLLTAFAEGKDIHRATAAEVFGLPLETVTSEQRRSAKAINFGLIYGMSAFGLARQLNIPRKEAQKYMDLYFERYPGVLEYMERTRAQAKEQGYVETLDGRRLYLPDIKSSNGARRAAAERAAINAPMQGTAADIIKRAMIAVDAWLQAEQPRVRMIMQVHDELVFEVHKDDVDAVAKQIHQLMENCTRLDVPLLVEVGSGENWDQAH
Procedure: The single nucleotide insertion experiment was performed as described in documents (Non-patent Documents 30-32). A primer (20-mer) labeled with 6-carboxylfluorescein at the 5′-end was annealed with template DNA (35-mer) by heating at 95° C. and slow cooling to 4° C. in 100 mM Tris-HCl (pH 7.5) buffer containing 20 mM MgCl2, 2 mM DTT and 0.1 mg/ml bovine serum albumin. The primer-template duplex solution (10 μM, 5 μl) was mixed with 2 μl enzyme solution of the Klenow fragment lacking exonuclease activity (KF exo^−, Amersham USB). After the mixture was incubated for 2 minutes, each dNTP solution (3 μl) was added to this solution to start the reaction at 37° C. The amount of the enzyme used (5-50 nM), the reaction time (1-35 minutes) and the gradient concentration of each dNTP (0.3-1500 μM) were adjusted to ensure conditions giving 25% or less products. The reaction was stopped with 10 μl stop solution (95% formamide and 20 mM EDTA), and the mixture was immediately heated at 75° C. for 3 minutes. The diluted products were analyzed in an automated ABI377 DNA sequencer equipped with GeneScan software (version 3.0) (Non-patent Document 32). The relative velocity (v0) was calculated by dividing the extent of reaction by the reaction time, and then normalized to the enzyme concentration (20 nM) for the various enzyme concentrations used. Kinetic parameters (KM and Vmax) were obtained from Hanes-Woolf plots of [dNTP]/v0 against [dNTP].
Each parameter was averaged from 3 to 8 data sets.

T7 RNA polymerase = T7 RNA polymerase (Escherichia phage T7, UniProt P00573); settings: [α-32P]ATP, natural NTP 1 mM; for Composition of nucleotide incorporated as 5′ neighbor of A: Gp: theoretical [2]
T7 RNA polymerase, sequence (P00573 whole entry): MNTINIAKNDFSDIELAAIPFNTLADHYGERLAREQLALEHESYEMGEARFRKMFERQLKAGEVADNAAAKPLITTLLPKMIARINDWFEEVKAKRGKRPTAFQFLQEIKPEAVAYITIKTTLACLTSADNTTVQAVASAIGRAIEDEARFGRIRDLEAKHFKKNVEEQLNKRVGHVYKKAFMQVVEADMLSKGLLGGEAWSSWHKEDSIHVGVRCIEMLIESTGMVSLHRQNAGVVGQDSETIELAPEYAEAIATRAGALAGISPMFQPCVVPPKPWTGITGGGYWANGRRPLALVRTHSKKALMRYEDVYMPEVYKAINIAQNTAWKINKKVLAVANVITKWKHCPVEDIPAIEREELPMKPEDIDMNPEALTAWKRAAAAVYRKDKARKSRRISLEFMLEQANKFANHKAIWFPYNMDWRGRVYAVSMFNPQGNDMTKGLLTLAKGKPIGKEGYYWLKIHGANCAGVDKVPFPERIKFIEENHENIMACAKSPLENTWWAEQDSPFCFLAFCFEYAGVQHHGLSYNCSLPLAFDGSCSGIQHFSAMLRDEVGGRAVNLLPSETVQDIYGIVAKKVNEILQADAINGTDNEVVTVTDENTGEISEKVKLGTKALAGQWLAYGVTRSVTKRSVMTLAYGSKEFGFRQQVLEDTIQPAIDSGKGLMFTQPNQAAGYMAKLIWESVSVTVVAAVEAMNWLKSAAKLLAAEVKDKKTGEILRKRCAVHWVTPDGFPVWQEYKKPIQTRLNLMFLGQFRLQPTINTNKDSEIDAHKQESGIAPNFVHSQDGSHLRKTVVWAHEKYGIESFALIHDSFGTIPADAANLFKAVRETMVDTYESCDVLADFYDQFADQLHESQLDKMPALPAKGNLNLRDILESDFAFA
Procedure: Transcription (20 μl) was accomplished in 40 mM Tris-HCl buffer (pH 8.0) containing 24 mM MgCl2, 2 mM spermidine, 5 mM DTT, 0.01% Triton X-100, 1-3 mM each natural NTP, 0-3 mM Pa′TP, 0-3 mM DsTP, 10 mM GMP, 2 μM template DNA (for 17-mer transcript synthesis) or 0.5 μM template DNA (for tRNA transcript synthesis), and 2.5 units/μl T7 RNA polymerase (TAKARA). […] For nucleotide composition analysis in transcripts (Non-patent Documents 17 and 33), the transcripts were internally labeled with 2 μCi [α-^32P]UTP or [α-^32P]ATP (Amersham). After the transcription, the products were digested with 0.75 units of RNase T2 at 37° C. for 2 hours in 10 μl of 15 mM sodium acetate buffer (pH 4.5). For 17-mer analysis, 0.05 A260 units of E. coli tRNA (Sigma) was added to the digestion reaction solution. The digestion products were analyzed by 2D-TLC (HPTLC plate, 100×100 mm, Merck). The developing solvents used for the first and second dimensions were isobutyric acid-ammonia-water (66:1:33 v/v/v) and isopropyl alcohol-HCl-water (70:15:15 v/v/v or 75:15:10 v/v/v for Pa′ transcripts), respectively. Spots of the labeled nucleotides on the TLC plate were analyzed with a bio-imaging analyzer.
The internally ^32P-labeled transcripts were digested with Rnase T2, and the resulting labeled nucleoside 3′-monophosphates were analyzed by 2D thin-layer chromatography (2D-TLC).

[2] = Entry 1, template temp35Ds-3, Pa 1 mM, theoretical [0]
[3] = Entry 1, template temp35Ds-3, Pa 1 mM, theoretical [1]
[4] = Entry 2, template temp35Ds-3, Pa 3 mM, theoretical [0]
[5] = Entry 2, template temp35Ds-3, Pa 3 mM, theoretical [1]
[6] = Entry 3, template temp35A-3, Pa 1 mM, theoretical [0]
[7] = Entry 3, template temp35A-3, Pa 1 mM, theoretical [1]
[8] = Entry 4, template temp35A-3, Pa 3 mM, theoretical [0]
[9] = Entry 4, template temp35A-3, Pa 3 mM, theoretical [1]
[10] = Entry 5, template temp35G-3, Pa 1 mM, theoretical [0]
[11] = Entry 5, template temp35G-3, Pa 1 mM, theoretical [1]
[12] = Entry 6, template temp35G-3, Pa 3 mM, theoretical [0]
[13] = Entry 6, template temp35G-3, Pa 3 mM, theoretical [1]

dATP [reference compound]
Efficiency (Vmax/KM) ([1]; template (N) = C, temp35N-2): 4.6 × 10^3 % min^−1M^−1
Km ([1]; template (N) = C, temp35N-2): 500 µM
Vmax ([1]; template (N) = C, temp35N-2): 2.3 % min^−1
Efficiency (Vmax/KM) ([1]; template (N) = Ds, temp35N-1): 2.4 × 10^3 % min^−1M^−1
Km ([1]; template (N) = Ds, temp35N-1): 150 µM
Vmax ([1]; template (N) = Ds, temp35N-1): 0.36 % min^−1
Efficiency (Vmax/KM) ([1]; template (N) = Pa, temp35N-2): 4.3 × 10^4 % min^−1M^−1
Km ([1]; template (N) = Pa, temp35N-2): 490 µM
Vmax ([1]; template (N) = Pa, temp35N-2): 21 % min^−1
Efficiency (Vmax/KM) ([1]; template (N) = Pa′, temp35N-2): 3.7 × 10^4 % min^−1M^−1
Km ([1]; template (N) = Pa′, temp35N-2): 570 µM
Vmax ([1]; template (N) = Pa′, temp35N-2): 21 % min^−1
Efficiency (Vmax/KM) ([1]; template (N) = T, temp35N-2): 4.1 × 10^6 % min^−1M^−1
Km ([1]; template (N) = T, temp35N-2): 0.81 µM
Vmax ([1]; template (N) = T, temp35N-2): 3.3 % min^−1

O=Cc1cccn1[C@@H]1O[C@H](COP(=O)(O)OP(=O)(O)OP(=O)(O)O)[C@@H](O)[C@H]1O [PaTP, 1-(β-D-Ribofuranosyl)pyrrole-2-carbaldehyde 5′-triphosphate]
Composition of nucleotide incorporated as 5′ neighbor of A: Cp (T7 RNA polymerase; [2]): 0.01 [0]
Composition of nucleotide incorporated as 5′ neighbor of A: Up (T7 RNA polymerase; [2]): 0.02 [0]
Composition of nucleotide incorporated as 5′ neighbor of A: Ap (T7 RNA polymerase; [3]): 1.03^c [1]^d
Composition of nucleotide incorporated as 5′ neighbor of A: Np (Pap) (T7 RNA polymerase; [3]): 0.97 [1]
Composition of nucleotide incorporated as 5′ neighbor of A: Gp (T7 RNA polymerase; Entry 1, template temp35Ds-3, Pa 1 mM): 1.97 [2]
Composition of nucleotide incorporated as 5′ neighbor of A: Cp (T7 RNA polymerase; [4]): 0.01 [0]
Composition of nucleotide incorporated as 5′ neighbor of A: Up (T7 RNA polymerase; [4]): 0.01 [0]
Composition of nucleotide incorporated as 5′ neighbor of A: Ap (T7 RNA polymerase; [5]): 1.01 [1]
Composition of nucleotide incorporated as 5′ neighbor of A: Np (Pap) (T7 RNA polymerase; [5]): 1.00 [1]
Composition of nucleotide incorporated as 5′ neighbor of A: Gp (T7 RNA polymerase; Entry 2, template temp35Ds-3, Pa 3 mM): 1.96 [2]
Composition of nucleotide incorporated as 5′ neighbor of A: Cp (T7 RNA polymerase; [6]): n.d.^f [0]
Composition of nucleotide incorporated as 5′ neighbor of A: Np (Pap) (T7 RNA polymerase; [6]): n.d. [0]
Composition of nucleotide incorporated as 5′ neighbor of A: Ap (T7 RNA polymerase; [7]): 0.99 [1]
Composition of nucleotide incorporated as 5′ neighbor of A: Up (T7 RNA polymerase; [7]): 1.04 [1]
Composition of nucleotide incorporated as 5′ neighbor of A: Gp (T7 RNA polymerase; Entry 3, template temp35A-3, Pa 1 mM): 1.96 [2]
Composition of nucleotide incorporated as 5′ neighbor of A: Cp (T7 RNA polymerase; [8]): n.d. [0]
Composition of nucleotide incorporated as 5′ neighbor of A: Np (Pap) (T7 RNA polymerase; [8]): n.d. [0]
Composition of nucleotide incorporated as 5′ neighbor of A: Ap (T7 RNA polymerase; [9]): 0.99 [1]
Composition of nucleotide incorporated as 5′ neighbor of A: Up (T7 RNA polymerase; [9]): 1.03 [1]
Composition of nucleotide incorporated as 5′ neighbor of A: Gp (T7 RNA polymerase; Entry 4, template temp35A-3, Pa 3 mM): 1.97 [2]
Composition of nucleotide incorporated as 5′ neighbor of A: Np (Pap) (T7 RNA polymerase; [10]): n.d. [0]
Composition of nucleotide incorporated as 5′ neighbor of A: Up (T7 RNA polymerase; [10]): 0.01 [0]
Composition of nucleotide incorporated as 5′ neighbor of A: Ap (T7 RNA polymerase; [11]): 1.02 [1]
Composition of nucleotide incorporated as 5′ neighbor of A: Cp (T7 RNA polymerase; [11]): 1.01 [1]
Composition of nucleotide incorporated as 5′ neighbor of A: Gp (T7 RNA polymerase; Entry 5, template temp35G-3, Pa 1 mM): 1.96 [2]
Composition of nucleotide incorporated as 5′ neighbor of A: Np (Pap) (T7 RNA polymerase; [12]): n.d. [0]
Composition of nucleotide incorporated as 5′ neighbor of A: Up (T7 RNA polymerase; [12]): 0.01 [0]
Composition of nucleotide incorporated as 5′ neighbor of A: Ap (T7 RNA polymerase; [13]): 1.01 [1]
Composition of nucleotide incorporated as 5′ neighbor of A: Cp (T7 RNA polymerase; [13]): 1.00 [1]
Composition of nucleotide incorporated as 5′ neighbor of A: Gp (T7 RNA polymerase; Entry 6, template temp35G-3, Pa 3 mM): 1.98 [2]

O=Cc1cccn1[C@H]1C[C@H](O)[C@@H](COP(=O)(O)OP(=O)(O)OP(=O)(O)O)O1 [dPaTP]
Efficiency (Vmax/KM) ([1]; template (N) = A, temp35N-1): 5.2 × 10^4 % min^−1M^−1
Km ([1]; template (N) = A, temp35N-1): 330 µM
Vmax ([1]; template (N) = A, temp35N-1): 17 % min^−1
inserted products (KM, Vmax n.d.) ([1]; template (N) = C, temp35N-1, 20 minutes, 1500 μM nucleoside 5′-triphosphate, 50 nM enzyme): n.d. (Minimal inserted products (<2%) were detected after incubation for 20 minutes with 1500 μM nucleoside 5′-triphosphate and 50 nM enzyme.)
Efficiency (Vmax/KM) ([1]; template (N) = Ds, temp35N-1): 6.2 × 10^4 % min^−1M^−1
Km ([1]; template (N) = Ds, temp35N-1): 340 µM
Vmax ([1]; template (N) = Ds, temp35N-1): 21 % min^−1
Efficiency (Vmax/KM) ([1]; template (N) = G, temp35N-1): 4.4 × 10^2 % min^−1M^−1
Km ([1]; template (N) = G, temp35N-1): 140 µM
Vmax ([1]; template (N) = G, temp35N-1): 0.061 % min^−1
Efficiency (Vmax/KM) ([1]; template (N) = Pa, temp35N-2): 1.5 × 10^3 % min^−1M^−1
Km ([1]; template (N) = Pa, temp35N-2): 380 µM
Vmax ([1]; template (N) = Pa, temp35N-2): 0.56 % min^−1
Efficiency (Vmax/KM) ([1]; template (N) = T, temp35N-1): 3.1 × 10^2 % min^−1M^−1
Km ([1]; template (N) = T, temp35N-1): 170 µM
Vmax ([1]; template (N) = T, temp35N-1): 0.053 % min^−1

CC#Cc1cc(C=O)n([C@H]2C[C@H](O)[C@@H](COP(=O)(O)OP(=O)(O)OP(=O)(O)O)O2)c1 [dPa′TP]
efficiency of incorporation opposite Ds in the template relative to that of dPaTP ([1]; KF exo−, template Ds): 3.9 fold
Efficiency (Vmax/KM) ([1]; template (N) = A, temp35N-1): 1.8 × 10^5 % min^−1M^−1
Km ([1]; template (N) = A, temp35N-1): 110 µM
Vmax ([1]; template (N) = A, temp35N-1): 20 % min^−1
Efficiency (Vmax/KM) ([1]; template (N) = C, temp35N-1): 7.4 × 10^2 % min^−1M^−1
Km ([1]; template (N) = C, temp35N-1): 80 µM
Vmax ([1]; template (N) = C, temp35N-1): 0.059 % min^−1
Efficiency (Vmax/KM) ([1]; template (N) = Ds, temp35N-1): 2.6 × 10^5 % min^−1M^−1
Km ([1]; template (N) = Ds, temp35N-1): 82 µM
Vmax ([1]; template (N) = Ds, temp35N-1): 21 % min^−1
Efficiency (Vmax/KM) ([1]; template (N) = G, temp35N-1): 1.6 × 10^3 % min^−1M^−1
Km ([1]; template (N) = G, temp35N-1): 80 µM
Vmax ([1]; template (N) = G, temp35N-1): 0.13 % min^−1
Efficiency (Vmax/KM) ([1]; template (N) = Pa′, temp35N-2): 4.1 × 10^4 % min^−1M^−1
Km ([1]; template (N) = Pa′, temp35N-2): 190 µM
Vmax ([1]; template (N) = Pa′, temp35N-2): 7.8 % min^−1
Efficiency (Vmax/KM) ([1]; template (N) = T, temp35N-1): 1.6 × 10^3 % min^−1M^−1
Km ([1]; template (N) = T, temp35N-1): 120 µM
Vmax ([1]; template (N) = T, temp35N-1): 0.19 % min^−1
